In general, IC50 refers to the concentration at which inhibition is half-maximal.

Like-named read-outs stand apart in the source and are kept apart here.

The target in test [1] is T1, CCK receptor (brain, cerebral cortex) (Cavia porcellus, UniProt H0VZC5).
T1 construct: Cerebral cortex was dissected and used as a receptor source; from tissue; host or cells: guinea pig cerebral cortex membranes (male Hartley)
T1 sequence (H0VZC5 1-426): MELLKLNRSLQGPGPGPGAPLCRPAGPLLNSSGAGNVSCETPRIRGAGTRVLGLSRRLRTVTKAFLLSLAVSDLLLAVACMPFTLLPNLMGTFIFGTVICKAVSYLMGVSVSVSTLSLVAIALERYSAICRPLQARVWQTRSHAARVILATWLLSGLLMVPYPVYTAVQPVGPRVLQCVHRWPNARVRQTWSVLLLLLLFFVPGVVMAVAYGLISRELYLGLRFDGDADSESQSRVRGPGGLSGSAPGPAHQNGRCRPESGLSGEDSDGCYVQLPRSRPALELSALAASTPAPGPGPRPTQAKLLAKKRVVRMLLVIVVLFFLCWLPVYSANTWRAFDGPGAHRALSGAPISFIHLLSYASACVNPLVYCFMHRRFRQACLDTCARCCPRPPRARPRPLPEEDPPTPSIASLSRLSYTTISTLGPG
Nature of the test: biochemical. Format: binding, Male Hartley guinea pigs. The following applies: guinea pig cerebral cortex, ^125 I-CCK-33, 25° C., 2 hours. The method in brief: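 Guinea pig cerebral cortex homogenate as receptor source, with radiolabeled CCK-33 in HEPES buffer containing MgCl2, bacitracin, EGTA and 0.4% BSA. Incubation 2 h at 25°C; bound ligand pelleted by centrifugation and gamma-counted.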

Test [2] addresses T2, Gastrin receptor (gastric glands) (Cavia porcellus, UniProt H0VZC5).
T2 construct: The washed guinea pig gastric glands prepared as above were resuspended; from tissue; host or cells: guinea pig gastric mucosal glands (male Hartley)
T2 sequence (H0VZC5 1-426): T1 sequence (H0VZC5 1-426)
Nature of the test: Gastrin Receptor Binding in Guinea Pig Gastric Glands. Set-up: species or system guinea pig (male Hartley). The following applies: 25° C., 30 minutes.

For test [3], the target named is T3, CCK receptor (pancreas) (Rattus norvegicus, UniProt P30551).
T3 construct: The whole pancreas was dissected free of fat tissue and was homogenized; from tissue; host or cells: rat pancreas membranes (Sprague-Dawley)
T3 sequence (P30551 1-444): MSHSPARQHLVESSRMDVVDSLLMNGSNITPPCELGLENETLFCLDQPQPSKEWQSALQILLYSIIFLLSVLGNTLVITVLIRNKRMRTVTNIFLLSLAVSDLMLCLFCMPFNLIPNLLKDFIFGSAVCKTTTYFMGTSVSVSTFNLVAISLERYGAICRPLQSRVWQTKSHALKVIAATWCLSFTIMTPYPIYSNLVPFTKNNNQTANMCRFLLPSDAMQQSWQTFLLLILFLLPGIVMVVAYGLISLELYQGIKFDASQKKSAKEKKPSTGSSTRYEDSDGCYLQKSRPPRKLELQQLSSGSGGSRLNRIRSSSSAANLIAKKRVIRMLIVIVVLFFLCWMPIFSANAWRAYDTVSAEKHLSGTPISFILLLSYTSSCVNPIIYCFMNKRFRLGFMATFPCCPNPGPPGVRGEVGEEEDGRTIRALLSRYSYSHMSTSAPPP
In words: CCK Receptor Binding (Pancreas): inhibition of ^125 I-CCK-33 binding. The following applies: rat pancreas membranes, ^125 I-CCK-33, 37° C., 30 minutes. Set-up: species or system Male Sprague-Dawley rats. The method, boiled down:
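Rat (male Sprague-Dawley) pancreatic membranes in 50 mM Tris HCl pH 7.7 with DTT, bacitracin, PMSF and o-phenanthroline; ^125I-Bolton Hunter-labelled CCK-33 as radioligand. Incubation 30 min at 37° C, separation by centrifugation, pellet gamma-counted; Scatchard analysis by diluting ^125I-CCK-33 with increasing CCK-33.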

Setting [4] is: ^125 I-gastrin, read-out: IC50 ^125 I-Gastrin Gastric Glands.
Setting [5] is: read-out: IC50 ^125 I-CCK Pancreas.
[6] abbreviates: IC50 ^125 I-Gastrin Gastric Glands.
Where [7] appears, read: read-out: IC50 ^125 I-CCK Brain.

On to `COc1cccc(NC(=O)N[C@H]2N=C(c3ccccc3)c3ccccc3N(C)C2=O)c1` [Example 267, (S)-N-(2,3-Dihydro-1-methyl-2-oxo-5-phenyl-1H-1,4-benzodiazepin-3-yl)-N'-(3-methoxyphenyl)-urea], for which the figures for the concentration for half-maximal inhibition (IC50) in test [1] (IC50 ^125 I-CCK Brain), in test [2] (setting [4]) and in test [3] (setting [5]) were 290 nM, 190 nM and 1.3 nM, respectively.
For the compound `CN1C(=O)C(NC(=O)NC2CCCCC2)N=C(c2ccccc2)c2ccccc21` (stereo not drawn) [Example 262, N-Cyclohexyl-N'-(2,3-dihydro-1-methyl-2-oxo-5-phenyl-1H-1,4-benzodiazepin-3-yl)-urea], the values for the IC50 in test [1] (IC50 ^125 I-CCK Brain), in test [2] (setting [6]) and in test [3] (setting [5]) were 3000 nM, 390 nM and 2400 nM, respectively.
Take `CN1C(=O)C(NC(=O)[C@@H](Cc2ccccc2)NC(=O)OC(C)(C)C)N=C(c2ccccc2F)c2ccccc21` (stereo partly drawn) [Example 231, (2-((5-(2-Fluorophenyl)-2,3-dihydro-1-methyl-2-oxo-1H-1,4-benzodiazepin-3-yl)amino)-2-oxo-1-(phenylmethyl)ethyl)-carbamic acid 1,1-dimethylethyl ester]: the figures for the IC50 in test [1] (setting [7]), in test [2] (setting [4]) and in test [3] (IC50 ^125 I-CCK Pancreas) were 2700 nM, 2900 nM and 580 nM, respectively.
Take `COc1cccc(NC(=O)NC2N=C(c3ccccc3)c3cccc(C)c3NC2=O)c1` (stereo not drawn) [Example 288, N-(3-Methoxyphenyl)-N'-(2,3-dihydro-9-methyl-2-oxo-5-phenyl-1H-1,4-benzodiazepin-3-yl)-urea]: the IC50 in test [1] (setting [7]) stood at 42 nM; in test [2] (setting [4]), 54 nM; in test [3] (IC50 ^125 I-CCK Pancreas) it was 75 nM.
`CCNC(=O)CN1C(=O)C(NC(=O)Nc2ccc(Cl)cc2)N=C(c2ccccc2)c2ccccc21` (stereo not drawn) [Example 224, 3-((((4-Chlorophenyl)amino)carbonyl)amino)-N-ethyl-2,3-dihydro-2-oxo-5-phenyl-1H-1,4-benzodiazepine-1-acetamide]: the IC50 turned out to be 11 nM in test [1] (setting [7]), 25 nM in test [2] (setting [4]) and 2100 nM in test [3] (setting [5]).
As for `O=C(Cc1ccc(Cl)cc1)NC1N=C(c2ccccc2)c2ccccc2NC1=O` (stereo not drawn) [Example 240, 4-Chloro-N-(2,3-dihydro-2-oxo-5-phenyl-1,4-benzodiazepin-3-yl)-benzeneacetamide], the IC50 in test [1] (setting [7]) came out at 2900 nM; in test [2] (setting [4]), 7000 nM; in test [3] (IC50 ^125 I-CCK Pancreas) it was 1300 nM.
For the compound `CCOC(=O)CN1C(=O)C(NC(=O)Cc2ccc(Cl)cc2)N=C(c2ccccc2)c2ccccc21` (stereo not drawn) [Example 239, 3-(((4-Chlorophenyl)acetyl)amino)-2,3-dihydro-2-oxo-5-phenyl-1H-1,4-benzodiazepine-1-acetic acid ethyl ester], the IC50 in test [1] (setting [7]) turned out to be 38 nM; in test [2] (setting [4]), 4.5 nM; in test [3] (IC50 ^125 I-CCK Pancreas), 1700 nM.
For the compound `O=C(NC1N=C(c2ccccc2F)c2ccccc2NC1=O)OCc1ccccc1` (racemic) [Example 175, 1,3-Dihydro-5-(2-fluorophenyl)-3(RS)-benzyloxycarbonylamino-2H-1,4-benzodiazepin-2-one], the IC50 in test [1] (setting [7]) stood at 15000 nM; in test [2] (setting [4]), 8000 nM; in test [3] (IC50 ^125 I-CCK Pancreas), 700 nM.
Regarding `CCN(CC)C(=O)CN1C(=O)C(NC(=O)Nc2ccc(Cl)cc2)N=C(c2ccccc2)c2ccccc21` (stereo not drawn) [Example 221, 3-((((4-Chlorophenyl)amino)carbonyl)amino)-N,N-diethyl-2,3-dihydro-2-oxo-5-phenyl-1H-1,4-benzodiazepine-1-acetamide], the IC50 turned out to be 0.6 nM in test [1] (setting [7]), 2 nM in test [2] (setting [4]) and 400 nM in test [3] (setting [5]).
Turning to `CN1C(=O)C(NC(=O)Nc2ccc(Cl)cc2Cl)N=C(c2ccccc2)c2ccccc21` (stereo not drawn) [Example 258, N-(2,4-Dichlorophenyl)-N'-(2,3-dihydro-1-methyl-2-oxo-5-phenyl-1H-1,4-benzodiazepin-3-yl)-urea], the IC50 in test [1] (IC50 ^125 I-CCK Brain) came out at 220 nM; in test [2] (setting [6]), 60 nM; in test [3] (setting [5]), 3 nM.
In the case of `O=C1Nc2ccccc2C(c2ccccc2F)=NC1NCc1cc2ccccc2[nH]1` (racemic) [Example 124, 1,3-Dihydro-5-(2-fluorophenyl)-3-(RS)-(2-indolylmethyl-amino)-2H-1,4-benzodiazepin-2-one], the half-inhibitory concentration (IC50) in test [1] (IC50 ^125 I-CCK Brain) is 100000 nM; in test [2] (setting [6]), more than 10000 nM; in test [3] (IC50 ^125 I-CCK Pancreas), 250 nM.
Consider `CN1CCN(C(=O)CN2C(=O)C(NC(=O)OCc3ccccc3)N=C(c3ccccc3)c3ccccc32)CC1` (stereo not drawn) [Example 235, (2,3-Dihydro-1-(2-(4-methyl-1-piperazinyl)-2-oxoethyl)-2-oxo-5-phenyl-1H-1,4-benzodiazepin-3-yl)-carbamic acid phenylmethyl ester], for which the IC50 in test [1] (setting [7]) was determined as 1700 nM; in test [2] (setting [4]), 1400 nM; in test [3] (IC50 ^125 I-CCK Pancreas), 29000 nM.
For `COc1cccc(NC(=O)NC2N=C(c3ccccc3F)c3ccccc3N(C)C2=O)c1` (stereo not drawn) [Example 246, N-(5-(2-Fluorophenyl)-2,3-dihydro-1-methyl-2-oxo-1H-1,4-benzodiazepin-3-yl)-N'-(3-methoxyphenyl)-urea] the same measures were 2 nM, 2.4 nM and 1.9 nM.
Take `CC(C)(C)OC(=O)N[C@H](Cc1c[nH]c2ccccc12)C(=O)NC1N=C(c2ccccc2)c2ccccc2NC1=O` (mixture of isomers) [Example 96, 3(RS)-(BOC-D-tryptophanyl)amino-1,3-dihydro-5-phenyl-2H-1,4-benzodiazepin-2-one]: the IC50 in test [1] (IC50 ^125 I-CCK Brain) is more than 100000 nM; in test [2] (setting [6]) it was 500000 nM; in test [3] (IC50 ^125 I-CCK Pancreas) it was 17000 nM.
Taken in the same sequence, the figures for `O=C(NC1N=C(c2ccccc2F)c2ccccc2NC1=S)OCc1ccccc1` (racemic) [Example 176, 1,3-Dihydro-5-(2-fluorophenyl)-3-(RS)-benzyloxycarbonylamino-2H-1,4-benzodiazeoin-2-thione] were 10000 nM, 3200 nM and 1000 nM.
In the case of `CN1C(=O)C(Cc2cn(C)c3ccccc23)N=C(c2ccccc2)c2ccccc21` (stereo not drawn) [Example 200, 1,3-Dihydro-1-methyl-3-((1-methyl-1H-indol-3-yl)methyl)-5-phenyl-2H-1,4-benzodiazepin-2-one], the IC50 in test [1] (setting [7]) was 63000 nM; in test [2] (setting [4]), 67000 nM; in test [3] (IC50 ^125 I-CCK Pancreas), 100 nM.
On to `CN1C(=O)C(C(O)c2cn(C)c3ccccc23)N=C(c2ccccc2)c2ccccc21` (racemic) [Example 50a, 1,3-Dihydro-3(RS)-[1-hydroxy-1-[3-(1-methylindolyl)]]-methyl-1-methyl-5-phenyl-2H-1,4-benzodiazepin-2-one], for which the IC50 in test [1] (setting [7]) turned out to be 2600 nM; in test [2] (setting [4]) it was 1200 nM; in test [3] (IC50 ^125 I-CCK Pancreas) it was 15000 nM.
On to `CCOC(=O)CCN1C(=O)C(NC(=O)Nc2ccc(Cl)cc2)N=C(c2ccccc2)c2ccccc21` (stereo not drawn) [Example 230, 3-((((4-Chlorophenyl)amino)carbonyl)amino)-2,3-dihydro-2-oxo-5-phenyl-1H-1,4-benzodiazepine-1-propanoic acid ethyl ester], for which the IC50 in test [1] (IC50 ^125 I-CCK Brain) turned out to be 5.1 nM; in test [2] (setting [6]), 35 nM; in test [3] (setting [5]) it was 490 nM.
With `CN1C(=O)C(NC(=O)Nc2ccccc2[N+](=O)[O-])N=C(c2ccccc2)c2ccccc21` (stereo not drawn) [Example 270, N-(2,3-Dihydro-1-methyl-2-oxo-5-phenyl-1H-1,4-benzodiazepin-3-yl)-N'-(2-nitrophenyl)-urea], the results for the IC50 in test [1] (IC50 ^125 I-CCK Brain), in test [2] (setting [6]) and in test [3] (setting [5]) were 1200 nM, 500 nM and 3 nM, respectively.

The record behind these values is patent US4820834A, “Benzodiazepine analogs” (priority 1987, dated 1989).
